Earlier results as cited in patent US8962595B2, “Compositions of small molecule therapeutics” (Nexmed Holdings, Inc., priority 2010, dated 2015).

Conditions: water

Sol. H2O (reported solubility from the literature): 3000 µg/mL
SMILES: NS(=O)(=O)c1cc2c(cc1Cl)N=CNS2(=O)=O [Chlorothiazide, chlorothiazide]
